Measurements published in PubChem BioAssay AID2060890 (Molecular Pharmacology Branch, DTP, NCI, 2025).

Test system: LG0703-F948-PDC complex spheroid viability
Assay: Anticancer human tumor LG0703-F948-PDC patient-derived lung adenocarcinoma cell line growth inhibition [RAS]
Conditions: for IC50: curve of first compound; for viability, T/C: stronger effect = lower value
Excerpt: RAS pathway inhibitors in Combinations in Complex Spheroids
A high-throughput screen of multi-cell type tumor spheroids was designed to identify active combinations of RAS pathway inhibitors and targeted small molecules. Complex spheroids include a stromal component modeled by human endothelial cells (HUVEC) and fibroblasts modeled by human mesenchymal stem cells (MSCs). The concentration ranges selected for each drug and investigational agent were based upon clinically achievable concentrations if the clinical Cmax of the agent was known.
Compounds. The drugs and investigational agents: abemaciclib (NSC768073), cobimetinib (NSC768068), divarasib (GDC6063, NSC841802), docetaxel (NSC628503), GDC-1971 (RLY-1971, NSC841576), gemcitabine (NSC613327), inavolisib (NSC800729), ipatasertib (NSC767898), KB-0742 (NSC834161), MRTX-1133 (NSC836407), osimertinib (NSC779217), RMC-4630 (NSC839698), RMC-6236 (NSC851965), RMC-6291 (NSC852671), Ro-3306 (NSC812927), sapanisertib (NSC764658), SN-38 (NSC673596), staurosporine (NSC755774), SY5609 (NSC837396), and tovorafenib (DAY101, NSC766906), were obtained from the National Cancer Institute (NCI) Developmental Therapeutics Program Chemical Repository. The FDA-approved anticancer drug set is available from the NCI Developmental Therapeutics Program. […] The stock solutions were prepared in dimethyl sulfoxide (DMSO, Sigma-Aldrich, St. Louis, MO, cat. D2650) at 800-fold the tested concentration and stored at -70 degrees C prior to their use. All drugs and investigational agents were tested over a range starting from a high concentration at or near the clinical Cmax and decreasing in half-log increments. If the clinical Cmax for an agent had not been determined, the highest concentration tested was 10 microM.
Cell Culture. All cells were maintained in an incubator at 37 degrees C and 5% CO2 with 95% humidity. The PDC lines were cultured according to standard operating procedures established by the NCI PDMR. All PDCs were thawed and cultured in Matrigel-coated flasks prepared with a working solution of 1X Ham's F-12 nutrient mix, without supplementation (Invitrogen, Waltham, MA, cat. 11765054), 100 U/mL penicillin-streptomycin (Invitrogen, cat. 15140122), and 2.5% Matrigel (Corning Inc., Corning, NY, cat. 354248) for the first three passages. The 362531-283-R-J2-PDC and 782815-120-R-J1-PDC lines were cultured in 6C/Colon 1B media, which includes advanced DMEM/F-12 (Thermo Fisher Scientific, cat. 12634028), 10 mM HEPES (Thermo Fisher Scientific, cat. 15630080), 1X GlutaMAX supplement (Thermo Fisher Scientific, cat. 35050061), 0.1 mg/mL primocin (InvivoGen, San Diego, CA, cat. ant-pm-2), 10% defined fetal bovine serum, heat inactivated (HyClone Laboratories Inc., Logan, UT, cat. SH30070.03HI), 50% L-WRN conditioned media (ATCC, cat. CRL-3276), 1.25 mM N-Acetyl-L-cysteine (Sigma-Aldrich, cat. A9165), 10 mM nicotinamide (Sigma-Aldrich, cat. N0636), 1X B-27 supplement (Thermo Fisher Scientific, cat. 17504044), 1X N-2 supplement (Thermo Fisher Scientific, cat. 17502048), 50 ng/mL human EGF (Thermo Fisher Scientific, cat. PHG0311), and 10 microM Y-27632 dihydrochloride (Tocris Bioscience, cat. 1254). The K12877-001-R-J1-PDC line was cultured in 6I media, which includes all 6C/Colon 1B media plus 10 ng/mL human FGF-10 (PeproTech, cat. 100-26), 1 ng/mL human FGF-2 (PeproTech, cat. 100-18B), 1 µM prostaglandin E2 (Tocris Bioscience, cat. 2296), […] hydrocortisone (Sigma-Aldrich, cat. H4001), and […] bovine insulin (Sigma-Aldrich, cat. I6634). The K86415-001-R-J1-PDC line was cultured in 6D media, which includes all 6C/Colon 1B media components minus the L-WRN conditioned media. The 485176-168-R4-J1-PDC was cultured in PANC media, which includes all 6C/Colon 1B media plus 100 ng/mL human FGF-10 (PeproTech, cat. 100-26), 500 nM SB-431542 (Selleckchem, cat. S1067), and 10 nM gastrin (Tocris Bioscience, cat. 3006). […]
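Further: spheroids exposed to agents for 7 days.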
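Wherever viability, T/C is given: 100% = DMSO vehicle wells.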

Work on `CCc1c2c(nc3ccc(O)cc13)-c1cc3c(c(=O)n1C2)COC(=O)[C@]3(O)CC` + C=CC(=O)N1CCN(c2nc(OCC3CCCN3C)nc3c(F)c(-c4nc(N)cc(C)c4C(F)(F)F)c(Cl)cc23)C(C)C1 yielded an IC50 (second compound 0.00316 µM) of 41.8 nM, an IC50 (second compound 0.01 µM) of 51.3 nM and an IC50 (second compound 0.0316 µM) of 37.6 nM. The IC50 (second compound 0.1 µM) was 30.5 nM, the IC50 (second compound 0.316 µM) was 44.4 nM and the IC50 (second compound 1 µM) was 50.8 nM. For the same compound, the viability, T/C (second compound 0.00316 µM, first compound 0.000949 µM) was 102%, the viability, T/C (second compound 0.00316 µM, first compound 0.003 µM) was 99.9% and the viability, T/C (second compound 0.00316 µM, first compound 0.00949 µM) was 77.8%. For the same compound, the viability, T/C (second compound 0.00316 µM, first compound 0.03 µM) was 54.5%, the viability, T/C (second compound 0.00316 µM, first compound 0.0949 µM) was 38.3% and the viability, T/C (second compound 0.00316 µM, first compound 0.3 µM) was 22.9%. For the same compound, the viability, T/C (second compound 0.01 µM, first compound 0.000949 µM) was 105%, the viability, T/C (second compound 0.01 µM, first compound 0.003 µM) was 87.5% and the viability, T/C (second compound 0.01 µM, first compound 0.00949 µM) was 80.7%. It also gave a viability, T/C (second compound 0.01 µM, first compound 0.03 µM) of 61.3%, a viability, T/C (second compound 0.01 µM, first compound 0.0949 µM) of 36.4% and a viability, T/C (second compound 0.01 µM, first compound 0.3 µM) of 20.7%. For the same compound, the viability, T/C (second compound 0.0316 µM, first compound 0.000949 µM) was 102%, the viability, T/C (second compound 0.0316 µM, first compound 0.003 µM) was 106% and the viability, T/C (second compound 0.0316 µM, first compound 0.00949 µM) was 92.1%. It also gave a viability, T/C (second compound 0.0316 µM, first compound 0.03 µM) of 53%, a viability, T/C (second compound 0.0316 µM, first compound 0.0949 µM) of 34% and a viability, T/C (second compound 0.0316 µM, first compound 0.3 µM) of 21%. For the same compound, the viability, T/C (second compound 0.1 µM, first compound 0.000949 µM) was 97.8%, the viability, T/C (second compound 0.1 µM, first compound 0.003 µM) was 103% and the viability, T/C (second compound 0.1 µM, first compound 0.00949 µM) was 63.4%. The viability, T/C (second compound 0.1 µM, first compound 0.03 µM) was 53.1%, the viability, T/C (second compound 0.1 µM, first compound 0.0949 µM) was 35.8% and the viability, T/C (second compound 0.1 µM, first compound 0.3 µM) was 21.2%. For the same compound, the viability, T/C (second compound 0.316 µM, first compound 0.000949 µM) was 104%, the viability, T/C (second compound 0.316 µM, first compound 0.003 µM) was 103% and the viability, T/C (second compound 0.316 µM, first compound 0.00949 µM) was 83.6%. For the same compound, the viability, T/C (second compound 0.316 µM, first compound 0.03 µM) was 58.8%, the viability, T/C (second compound 0.316 µM, first compound 0.0949 µM) was 34.4% and the viability, T/C (second compound 0.316 µM, first compound 0.3 µM) was 24.3%. It also gave a viability, T/C (second compound 1 µM, first compound 0.000949 µM) of 106%, a viability, T/C (second compound 1 µM, first compound 0.003 µM) of 98.8% and a viability, T/C (second compound 1 µM, first compound 0.00949 µM) of 91%. The viability, T/C (second compound 1 µM, first compound 0.03 µM) was 57.3%, the viability, T/C (second compound 1 µM, first compound 0.0949 µM) was 39.8% and the viability, T/C (second compound 1 µM, first compound 0.3 µM) was 20.1%.

In the case of `CC(C)NCC(C(=O)N1CCN(c2ncnc3c2C(C)CC3O)CC1)c1ccc(Cl)cc1` (centres undefined) + CCn1c(-c2cc(N3CCN(C)CC3)cnc2C(C)OC)c2c3cc(ccc31)-c1csc(n1)CC(NC(=O)C1CC1C)C(=O)N1CCCC(N1)C(=O)OCC(C)(C)C2, the IC50 (second compound 0.000949 µM) is reported as 127 nM, the IC50 (second compound 0.003 µM) is reported as 34.1 nM and the IC50 (second compound 0.00949 µM) is reported as under 31.6 nM. The IC50 (second compound 0.03 µM) was under 31.6 nM, the IC50 (second compound 0.0949 µM) was under 31.6 nM and the IC50 (second compound 0.3 µM) was under 31.6 nM. It also gave a viability, T/C (second compound 0.000949 µM, first compound 0.0316 µM) of 64.1%, a viability, T/C (second compound 0.000949 µM, first compound 0.1 µM) of 54% and a viability, T/C (second compound 0.000949 µM, first compound 0.316 µM) of 37.1%. It also gave a viability, T/C (second compound 0.000949 µM, first compound 1 µM) of 30%, a viability, T/C (second compound 0.000949 µM, first compound 3.16 µM) of 17.6% and a viability, T/C (second compound 0.000949 µM, first compound 10 µM) of 14.5%. For the same compound, the viability, T/C (second compound 0.003 µM, first compound 0.0316 µM) was 51%, the viability, T/C (second compound 0.003 µM, first compound 0.1 µM) was 35% and the viability, T/C (second compound 0.003 µM, first compound 0.316 µM) was 18%. It also gave a viability, T/C (second compound 0.003 µM, first compound 1 µM) of 13.1%, a viability, T/C (second compound 0.003 µM, first compound 3.16 µM) of 12.7% and a viability, T/C (second compound 0.003 µM, first compound 10 µM) of 8.04%. The viability, T/C (second compound 0.00949 µM, first compound 0.0316 µM) was 23.2%, the viability, T/C (second compound 0.00949 µM, first compound 0.1 µM) was 16.7% and the viability, T/C (second compound 0.00949 µM, first compound 0.316 µM) was 10.3%. For the same compound, the viability, T/C (second compound 0.00949 µM, first compound 1 µM) was 7.8%, the viability, T/C (second compound 0.00949 µM, first compound 3.16 µM) was 6.46% and the viability, T/C (second compound 0.00949 µM, first compound 10 µM) was 3.27%. It also gave a viability, T/C (second compound 0.03 µM, first compound 0.0316 µM) of 11.7%, a viability, T/C (second compound 0.03 µM, first compound 0.1 µM) of 13.7% and a viability, T/C (second compound 0.03 µM, first compound 0.316 µM) of 7.73%. For the same compound, the viability, T/C (second compound 0.03 µM, first compound 1 µM) was 3.93%, the viability, T/C (second compound 0.03 µM, first compound 3.16 µM) was 3.49% and the viability, T/C (second compound 0.03 µM, first compound 10 µM) was 1%. The viability, T/C (second compound 0.0949 µM, first compound 0.0316 µM) was 10%, the viability, T/C (second compound 0.0949 µM, first compound 0.1 µM) was 6.85% and the viability, T/C (second compound 0.0949 µM, first compound 0.316 µM) was 4.55%. For the same compound, the viability, T/C (second compound 0.0949 µM, first compound 1 µM) was 3.71%, the viability, T/C (second compound 0.0949 µM, first compound 3.16 µM) was 1.27% and the viability, T/C (second compound 0.0949 µM, first compound 10 µM) was 0.64%. It also gave a viability, T/C (second compound 0.3 µM, first compound 0.0316 µM) of 9.37%, a viability, T/C (second compound 0.3 µM, first compound 0.1 µM) of 5.76% and a viability, T/C (second compound 0.3 µM, first compound 0.316 µM) of 5.01%. It also gave a viability, T/C (second compound 0.3 µM, first compound 1 µM) of 3.25%, a viability, T/C (second compound 0.3 µM, first compound 3.16 µM) of 1.87% and a viability, T/C (second compound 0.3 µM, first compound 10 µM) of 0.61%.
